The text below walks through data of paper PMC7763114, “Synthesis and pharmacological effects of novel benzenesulfonamides carrying benzamide moiety as carbonic anhydrase and acetylcholinesterase inhibitors” (Turkish Journal of Chemistry, 2020).

What all share (format): biochemical
One test addresses hCA II (Homo sapiens, UniProt P00918). The test can be described thus: biochemical. The note with it: for Ki: Lineweaver–Burk plots, three concentrations. The method, then: (§1) CA isoenzymes (CA I and CA II) were purified using a Sepharose-4B-L tyrosine-sulphanilamide affinity chromatography. Activities of CA isoenzymes were determined according to method by Verpoorte et al.. […] The experimental procedure was given in detail in our previous papers. SSpectrophotometry-based Ellman’s method was used to test the compounds’ AChE inhibitory effects. Acetylthiocholine iodide (AChI) was used as a substrate of the reaction. 5,5-dithiobis(2-nitro-benzoic acid) (DTNB) was used for the determination of the AChE activities. An activity (%)-[Compound] graph was drawn to calculate the inhibition effects of the compounds on CAs and AChE. The IC50 values were obtained from activity (%) versus compounds plots. Three different concentrations were used to calculate Ki values. The Lineweaver–Burk plots were drawn, and calculations were realized as described.

For the next test, the target named is hCA I (Homo sapiens, UniProt P00915). Nature of the test: biochemical. The following applies: for Ki: Lineweaver–Burk plots, three concentrations. The method, then:
as §1

For another test, the target named is AChE (Electrophorus electricus, UniProt O42275). The test can be described thus: AChE inhibition (Ellman's method). The following applies: in terms of Ki value. As for the experimental part:
as §1

“And” between values parts separate entries of the source, which are not always exact repeats. Equal values may be shown once.

Sequence of hCA I (P00915 whole entry): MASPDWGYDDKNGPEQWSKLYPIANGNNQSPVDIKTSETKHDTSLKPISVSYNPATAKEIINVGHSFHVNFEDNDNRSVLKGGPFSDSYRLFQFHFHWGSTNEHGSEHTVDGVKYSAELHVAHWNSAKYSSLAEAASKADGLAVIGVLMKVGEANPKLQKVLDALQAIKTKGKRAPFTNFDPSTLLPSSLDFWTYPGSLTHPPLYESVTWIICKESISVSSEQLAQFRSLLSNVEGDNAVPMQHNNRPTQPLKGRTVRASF
Sequence of AChE (O42275 24-633): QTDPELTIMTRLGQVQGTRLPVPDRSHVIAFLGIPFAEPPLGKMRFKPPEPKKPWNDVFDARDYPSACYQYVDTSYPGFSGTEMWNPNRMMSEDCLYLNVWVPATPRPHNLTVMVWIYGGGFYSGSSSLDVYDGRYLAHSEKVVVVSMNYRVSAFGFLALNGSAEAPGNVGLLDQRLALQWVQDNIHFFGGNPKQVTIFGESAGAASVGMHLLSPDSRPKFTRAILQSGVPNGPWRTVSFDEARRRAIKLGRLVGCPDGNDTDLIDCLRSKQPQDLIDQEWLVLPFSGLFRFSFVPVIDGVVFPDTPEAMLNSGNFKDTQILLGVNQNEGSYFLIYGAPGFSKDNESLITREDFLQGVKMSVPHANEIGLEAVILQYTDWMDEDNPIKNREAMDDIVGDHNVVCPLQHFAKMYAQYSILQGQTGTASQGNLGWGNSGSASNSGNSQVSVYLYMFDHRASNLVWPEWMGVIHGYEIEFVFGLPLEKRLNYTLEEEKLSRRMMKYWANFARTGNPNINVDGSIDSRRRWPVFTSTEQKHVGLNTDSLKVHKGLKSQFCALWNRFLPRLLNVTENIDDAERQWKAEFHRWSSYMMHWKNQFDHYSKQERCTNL

As a reminder, the IC50 is the point on the concentration scale where inhibition reaches its midpoint. A high value points to a need for much substance. For orientation: Ki means a measure of affinity in units of concentration, obtained from inhibition or displacement. Lower therefore signals higher affinity. As to `COc1ccc(/C=C(\NC(=O)c2ccccc2)C(=O)Nc2ccc(S(=O)(=O)NC(C)=O)cc2)cc1` [3a], the IC50 was 20.4 nM against hCA II and 27.7 nM against hCA I. The Ki was 18.7 ± 1.59 nM at hCA II and 17.6 ± 4.72 nM on hCA I. Also, the “times more potent than AZA toward hCA II” value at hCA II (based on Ki values) is listed as 1.2 ×. Moreover, the “times more potent than AZA toward hCA I” value at hCA I (based on Ki values) is 1.7 ×.
On to `COc1ccc(/C=C(\NC(=O)c2ccccc2)C(=O)Nc2ccc(S(=O)(=O)NC(=N)N)cc2)cc1` [3b], for which, on hCA II, half-maximal inhibition (IC50) required 24.8 nM and the inhibitory constant (Ki) stood at 12.6 ± 2.54 nM. Also, the “times more potent than AZA toward hCA II” value at hCA II (based on Ki values) is recorded as 1.8 ×. Further, on hCA I, the midpoint of inhibition, the IC50, lay at 19.8 nM and the affinity, expressed as Ki, was 29.7 ± 3.18 nM.
Take `COc1ccc(/C=C(\NC(=O)c2ccccc2)C(=O)Nc2ccc(S(N)(=O)=O)cc2)cc1` [3c]: on hCA II, the IC50 was 30.1 nM and the Ki amounted to 10.7 ± 0.98 nM. In addition, at hCA II (based on Ki values), the “times more potent than AZA toward hCA II” value is 2.1 × and 2 ×; the “times more potent than compound 2 on hCA II” value is on record as 5.8 ×. At hCA I, this compound returned a half-maximal inhibitory concentration (IC50) of 20.4 nM and a Ki of 6.33 ± 0.51 nM. Further, the “times more potent than AZA toward hCA I” value at hCA I (based on Ki values) is on record as 4.8 ×.
On hCA II, `COc1ccc(/C=C(\NC(=O)c2ccccc2)C(=O)Nc2ccc(S(=O)(=O)Nc3nccs3)cc2)cc1` [3d] displayed an IC50 of 21 nM and a Ki of 16.9 ± 3.76 nM. Moreover, the “times more potent than AZA toward hCA II” value on hCA II (based on Ki values) is on record as 1.3 ×. On hCA I, this compound showed an IC50 of 22.4 nM and a Ki of 9.16 ± 0.46 nM. The “times more potent than AZA toward hCA I” value on hCA I (based on Ki values) came out at 3.3 ×.
On to `COc1ccc(/C=C(\NC(=O)c2ccccc2)C(=O)Nc2ccc(S(=O)(=O)Nc3ncccn3)cc2)cc1` [3e], for which, at hCA II, the IC50 was 25.7 nM and the Ki was determined as 37.2 ± 7.55 nM. On hCA I, this compound returned an IC50 of 25.7 nM and a Ki of 8.02 ± 0.88 nM. The “times more potent than AZA toward hCA I” value on hCA I (based on Ki values) amounted to 3.8 ×.
On hCA II, `COc1ccc(/C=C(\NC(=O)c2ccccc2)C(=O)Nc2ccc(S(=O)(=O)Nc3nccc(C)n3)cc2)cc1` [3f] registered an IC50 of 24.8 nM and a Ki of 21.4 ± 3.47 nM. In addition, on hCA I, it took 28.9 nM to reach half-maximal inhibition (IC50) and the Ki stood at 11.3 ± 1.7 nM. At hCA I (based on Ki values), the “times more potent than AZA toward hCA I” value amounted to 2.7 ×. At AChE, the “times more potent than 3e on AChE” value is recorded as 3.8 × and the “times more potent than 3g on AChE” value is reported as 1.5 ×.
On hCA II, `COc1ccc(/C=C(\NC(=O)c2ccccc2)C(=O)Nc2ccc(S(=O)(=O)Nc3nc(C)cc(C)n3)cc2)cc1` [3g] had an IC50 of 26.7 nM and a Ki of 14.9 ± 3.1 nM. Besides, the “times more potent than AZA toward hCA II” value at hCA II (based on Ki values) is on record as 1.5 ×. On hCA I, this compound had an IC50 of 21 nM and a Ki of 4.07 ± 0.38 nM. Also, on hCA I (based on Ki values), the “times more potent than 3e on hCA I” value is 2 ×, the “times more potent than AZA toward hCA I” value stood at 7.5 × and the “times more potent than compound 2 on hCA I” value worked out at 12.4 ×.
Consider `COc1ccc(C=C2N=C(c3ccccc3)OC2=O)cc1` [compound 2, 4-(4-methoxybenzylidene)-2-phenyloxazol-5(4H)-one], for which the IC50 against hCA II was found to be 46.2 nM; on hCA I it was 40.8 nM. In addition, the figures for the Ki at hCA II and on hCA I were 62.5 ± 11.5 nM and 50.3 ± 1.59 nM, respectively.
